Where only a bound is given, the exact number is not on record here.

For this experiment, the target named is T1, human EP1 receptor (Homo sapiens, UniProt P34995).
T1 construct: expressed in transfected cells; host or cells: CHO-K1
T1 sequence (P34995 1-402): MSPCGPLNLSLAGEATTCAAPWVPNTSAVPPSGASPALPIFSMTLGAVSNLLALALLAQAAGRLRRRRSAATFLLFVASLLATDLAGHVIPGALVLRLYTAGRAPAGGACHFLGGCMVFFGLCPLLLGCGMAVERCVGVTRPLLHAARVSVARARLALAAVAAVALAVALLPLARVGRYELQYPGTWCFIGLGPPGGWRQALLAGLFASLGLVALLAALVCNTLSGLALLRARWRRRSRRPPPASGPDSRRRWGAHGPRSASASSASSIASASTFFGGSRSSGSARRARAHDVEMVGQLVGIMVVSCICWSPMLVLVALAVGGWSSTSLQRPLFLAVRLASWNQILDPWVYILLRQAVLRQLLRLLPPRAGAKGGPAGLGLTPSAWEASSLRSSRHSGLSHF
The experiment can be described thus: human EP1 calcium mobilisation assay. It is filed as cell-based. The settings on record: human EP1, PGE2-induced calcium mobilisation in CHO-K1 cells; free bases or sodium salts; averages of a number of experiments; read-out: functional pKi value (converted). As to the method:
Briefly, the antagonist properties of compounds are assessed by their ability to inhibit the mobilisation of intracellular calcium ([Ca^2+]i) in response to activation of EP1 or EP3 receptors by the natural agonist hormone prostaglandin E2 (PGE2). Increasing concentrations of antagonist reduce the amount of calcium that a given concentration of PGE2 can mobilise. The net effect is to displace the PGE2 concentration-effect curve to higher concentrations of PGE2. The amount of calcium produced is assessed using a calcium-sensitive fluorescent dye such as Fluo-4, AM and a suitable instrument such as a Fluorimetric Imaging Plate Reader (FLIPR). Increasing amounts of [Ca^2+]i produced by receptor activation increase the amount of fluorescence produced by the dye and give rise to an increasing signal. The signal may be detected using the FLIPR instrument and the data generated may be analysed with suitable curve-fitting software.
The human EP1 or EP3 calcium mobilisation assay (hereafter referred to as ‘the calcium assay’) utilises Chinese hamster ovary-K1(CHO-K1) cells into which a stable (pCIN; BioTechniques 20 (1996): 102-110) vector containing either EP1 or EP3 cDNA has previously been transfected. Cells are cultured in suitable flasks containing culture medium such as DMEM:F-12 supplemented with 10% v/v foetal calf serum, 2 mM L-glutamine, 0.25 mg/ml geneticin, 100 μM flurbiprofen and 10 μg/ml puromycin.
For assay, cells are harvested using a proprietary reagent that dislodges cells such as Versene. Cells are re-suspended in a suitable quantity of fresh culture media for introduction into a 384-well plate. Following incubation for 24 hours at 37° C. the culture media is replaced with a medium containing Fluo-4 and the detergent pluronic acid, and a further incubation takes place. Concentrations of compounds are then added to the plate in order to construct concentration-effect curves. This may be performed on the FLIPR in order to assess the agonist properties of the compounds. Concentrations of PGE2 are then added to the plate in order to assess the antagonist properties of the compounds.
The data so generated may be analysed by means of a computerised curve-fitting routine. The concentration of compound that elicits a half-maximal inhibition of the calcium mobilisation induced by PGE2 (pIC50) may then be estimated.
On to `CC(C)CNC(=O)c1ccc(Cc2cc(Cl)ccc2OCc2ccccc2)o1` [Example 50, 5-({5-Chloro-2-[(phenylmethyl)oxy]phenyl}methyl)-N-(2-methylpropyl)-2-furancarboxamide], for which the Ki was below 1000 nM.
`CC(C)(C)NC(=O)c1ccc(Cc2cc(Cl)ccc2OCc2ccccc2)o1` [Example 51, 5-({5-Chloro-2-[(phenylmethyl)oxy]phenyl}methyl)-N-(1,1-dimethylethyl)-2-furancarboxamide]: the Ki was below 1000 nM.
On to `CC(C)(C)CNC(=O)c1ccc(Cc2cc(Cl)ccc2OCc2ccccc2)o1` [Example 52, 5-({5-Chloro-2-[(phenylmethyl)oxy]phenyl}methyl)-N-(2,2-dimethylpropyl)-2-furancarboxamide], for which the Ki is below 1000 nM.
Regarding `O=C(NCc1ccccn1)c1ccc(Cc2cc(Cl)ccc2OCc2ccccc2)o1` [Example 53, 5-({5-Chloro-2-[(phenylmethyl)oxy]phenyl}methyl)-N-(2-pyridinylmethyl)-2-furancarboxamide], the Ki is at most 10 nM.
Regarding `CN(C)c1ccc(CNC(=O)c2ccc(Cc3cc(Cl)ccc3OCc3ccccc3)o2)cc1` [Example 54, 5-({5-Chloro-2-[(phenylmethyl)oxy]phenyl}methyl)-N-{[4-(dimethylamino)phenyl]methyl}-2-furancarboxamide], the Ki is below 1000 nM.
`CC(C)COc1ccc(Cl)cc1Cc1ccc(C(=O)NC(C)C)o1` [Example 55, 5-({5-Chloro-2-[(2-methylpropyl)oxy]phenyl}methyl)-N-(1-methylethyl)-2-furancarboxamide]: the Ki is below 1000 nM.
Next, `CC(C)COc1ccc(Cl)cc1Cc1ccc(C(=O)NC(C)(C)C)o1` [Example 56, 5-({5-Chloro-2-[(2-methylpropyl)oxy]-phenyl}methyl)-N-(1,1-dimethylethyl)-2-furancarboxamide]: below 1000 nM; `CC(C)COc1ccc(Cl)cc1Cc1ccc(C(=O)NCc2ccccn2)o1` [Example 58, 5-({5-Chloro-2-[(2-methylpropyl)oxy]-phenyl}methyl)-N-(2-pyridinylmethyl)-2-furancarboxamide]: below 1000 nM; `CC(C)COc1ccc(Cl)cc1Cc1ccc(C(=O)n2cnc3ccccc32)o1` [Example 67, 1-{[5-({5-Chloro-2-[(2-methylpropyl)oxy]-phenyl}methyl)-2-furanyl]carbonyl}-1H-benzimidazole]: below 1000 nM.
In the case of `CC(C)COc1ccc(Cl)cc1Cc1ccc(C(N)=O)o1` [Example 68, 5-({5-Chloro-2-[(2-methylpropyl)oxy]-phenyl}methyl)-2-furancarboxamide] it was below 1000 nM; in that of `O=C(Nc1ccccc1F)c1ccc(Cc2cc(Cl)ccc2OCc2ccccc2)o1` [Example 69, 5-({5-Chloro-2-[(phenylmethyl)oxy]-phenyl}methyl)-N-(2-fluorophenyl)-2-furancarboxamide], below 1000 nM; in that of `O=C(Nc1ccccc1)c1ccc(Cc2cc(Cl)ccc2OCc2ccccc2)o1` [Example 70, 5-({5-Chloro-2-[(phenylmethyl)oxy]-phenyl}methyl)-N-phenyl-2-furancarboxamide], below 1000 nM.
Regarding `Cc1cccc(C)c1NC(=O)c1ccc(Cc2cc(Cl)ccc2OCc2ccccc2)o1` [Example 71, 5-({5-Chloro-2-[(phenylmethyl)oxy]-phenyl}methyl)-N-(2,6-dimethylphenyl)-2-furancarboxamide], the Ki is below 1000 nM.
Next, `O=C(Nc1ccccc1Cl)c1ccc(Cc2cc(Cl)ccc2OCc2ccccc2)o1` [Example 72, N-(2-chlorophenyl)-5-({5-chloro-2-[(phenylmethyl)oxy]-phenyl}methyl)-2-furancarboxamide]: below 1000 nM.
In the case of `Cc1ccccc1NC(=O)c1ccc(Cc2cc(Cl)ccc2OCc2ccccc2)o1` [Example 73, 5-({5-Chloro-2-[(phenylmethyl)oxy]-phenyl}methyl)-N-(2-methylphenyl)-2-furancarboxamide] it was below 1000 nM; in that of `Cc1cccc(Cl)c1NC(=O)c1ccc(Cc2cc(Cl)ccc2OCc2ccccc2)o1` [Example 74, N-(2-Chloro-6-methylphenyl)-5-({5-chloro-2-[(phenylmethyl)oxy]-phenyl}methyl)-2-furancarboxamide], below 1000 nM; in that of `O=C(Nc1ccccc1-c1ccccc1)c1ccc(Cc2cc(Cl)ccc2OCc2ccccc2)o1` [Example 75, N-2-biphenylyl-5-({5-chloro-2-[(phenylmethyl)oxy]-phenyl}methyl)-2-furancarboxamide], above 1000 nM.
For the compound `O=C(Nc1ccccc1Br)c1ccc(Cc2cc(Cl)ccc2OCc2ccccc2)o1` [Example 76, N-(2-bromophenyl)-5-({5-chloro-2-[(phenylmethyl)oxy]-phenyl}methyl)-2-furancarboxamide], the Ki was below 1000 nM.
Next, `O=C(c1ccc(Cc2cc(Cl)ccc2OCc2ccccc2)o1)n1cnc2ccccc21` [Example 77, 1-{[5-({5-Chloro-2-[(phenylmethyl)oxy]-phenyl}methyl)-2-furanyl]carbonyl}-1H-benzimidazole]: below 1000 nM; `NC(=O)c1ccc(Cc2cc(Cl)ccc2OCc2ccccc2)o1` [Example 78, 5-({5-Chloro-2-[(phenylmethyl)oxy]-phenyl}methyl)-2-furancarboxamide]: below 1000 nM; `O=C(Nc1c(F)cccc1F)c1ccc(Cc2cc(Cl)ccc2OCc2ccccc2)o1` [Example 79, 5-({5-Chloro-2-[(phenylmethyl)oxy]-phenyl}methyl)-N-(2,6-difluorophenyl)-2-furancarboxamide]: at most 10 nM.
In the case of `CC(C)COc1ccc(Cl)cc1Cc1ccc(C(=O)Nc2c(F)cccc2F)o1` [Example 80, 5-({5-Chloro-2-[(2-methylpropyl)oxy]-phenyl}methyl)-N-(2,6-difluorophenyl)-2-furancarboxamide], the Ki is below 1000 nM.
In the case of `O=C(Nc1c(F)cccc1F)c1ccc(Cc2cc(Cl)ccc2OCc2ccccc2F)o1` [Example 81, 5-[(5-Chloro-2-{[(2-fluorophenyl)methyl]oxy}phenyl)methyl]-N-(2,6-difluorophenyl)-2-furancarboxamide] it was below 1000 nM.
For `O=C(Nc1c(F)cccc1F)c1ccc(Cc2cc(Cl)ccc2OCc2ccc(F)cc2)o1` [Example 82, 5-[(5-Chloro-2-{[(4-fluorophenyl)methyl]oxy}-phenyl)methyl]-N-(2,6-difluorophenyl)-2-furancarboxamide], the Ki is below 1000 nM.
Turning to `O=C(Nc1c(F)cccc1F)c1ccc(Cc2cc(Cl)ccc2OCc2c(F)cc(F)cc2F)o1` [Example 83, 5-[(5-Chloro-2-{[(2,4,6-trifluorophenyl)methyl]oxy}-phenyl)methyl]-N-(2,6-difluorophenyl)-2-furancarboxamide], the Ki was below 1000 nM.
Turning to `O=C(Nc1c(F)cccc1F)c1ccc(Cc2cc(Cl)ccc2OCc2c(F)cccc2F)o1` [Example 85, 5-[(5-Chloro-2-{[(2,6-difluorophenyl)methyl]oxy}-phenyl)methyl]-N-(2,6-difluorophenyl)-2-furancarboxamide], the Ki is below 1000 nM.
Next, `O=C(Nc1c(F)cccc1F)c1ccc(Cc2cc(Cl)ccc2OCc2ccc(F)c(F)c2)o1` [Example 86, 5-[(5-Chloro-2-{[(3,4-difluorophenyl)methyl]oxy}-phenyl)methyl]-N-(2,6-difluorophenyl)-2-furancarboxamide]: below 1000 nM; `O=C(Nc1c(F)cccc1F)c1ccc(Cc2cc(Cl)ccc2OCc2cccc(F)c2F)o1` [Example 87, 5-[(5-Chloro-2-{[(2,3-difluorophenyl)methyl]oxy}-phenyl)methyl]-N-(2,6-difluorophenyl)-2-furancarboxamide]: below 1000 nM.
In the case of `O=C(Nc1c(F)cccc1F)c1ccc(Cc2cc(Cl)ccc2OCc2cc(F)c(F)cc2F)o1` [Example 88, 5-[(5-Chloro-2-{[(2,4,5-trifluorophenyl)methyl]oxy}-phenyl)methyl]-N-(2,6-difluorophenyl)-2-furancarboxamide] it was below 1000 nM.

These data come from US20080287430A1, “Furan Compounds Useful As Ep1 Receptor Antagonists” (priority 2005, published 2008).
